Data as given in US20240109877A1, “PYRIMIDINES FOR DEGRADING BRUTON'S TYROSINE KINASE” (AbbVie Inc., priority 2022, published 2024).

What was measured:
[1] = target: BTK protein in human whole blood (Homo sapiens (Human), UniProt Q06187); assay: Btk protein in human whole blood MSD ELISA based assay (Btk degradation); type: cell-based; details: human whole blood from healthy donors, 6 hours at 37° C., half maximal degradation concentration; read-out: hWB BTK DC50
Method: Btk protein degradation was tested using an Meso Scale Discovery-ELISA system (MSD-ELISA): (1) Test compounds were added to human whole blood; (2) human whole blood cells treated with test compounds were lysed; (3) lysed cells were treated with capture antibody, an antibody to Btk; (4) lysed cells were treated with […] to Btk; and (5) lysed cells were treated with anti-mouse antibody (tagged).
Specifically, about 80 μl of fresh human whole blood from healthy donors was transferred into each well of a 96-well V-bottom plate (Costar, Cat No.3894). Using a TECANTM D300e Digital Dispenser (Tecan)), 1:4 serially diluted compounds [(8 pt assay) in DMSO solution (final 0.2%) starting at 3 μM top concentration], were added in duplicate. Thereafter, plates were placed in a 37° C. incubator and incubated for 6 hours.
At the end of incubation, 80 μl of 2× CST lysis buffer (Cell Signaling Technology, Cat No. 9803), prepared from a 10× stock solution, was added per well to lyse the blood. Plates were then sealed with a plate sealer and the samples were frozen overnight at −80° C.
Total amount of BTK protein remaining in the blood samples after compound treatment was measured using MSD-ELISA. After thawing the frozen plates, blood lysates were mixed thoroughly and transferred to small spot high-bind MSD plates (Meso Scale Discovery, Cat No. L45XB-3) and coated with capturing antibody, rabbit anti-human BTK (D3H5) (Cell Signaling Technology, Cat No. 8547CF). Thereafter, primary detection antibody, mouse anti-human BTK monoclonal antibody, (BD Biosciences, Cat No. 611117) and secondary detection antibody, anti-mouse SULFO-TAG (Meso Scale Discovery, Cat No. R32AC-1) were added. The assay plates were read on an MSD S600 plate reader by the addition of 2× MSD read buffer (Meso Scale Discovery, R92TC-1). All reagent transfers, including blood lysis, was conducted using a Biomed i7 liquid handler. From the dose response curves, DC50 values were calculated by averaging data from duplicate experiments. and Curve fitting was done by non-linear regression using GraphPad Prism. The DC50 values are reported in Table 2 in the hWB BTK DC50 (nM) column The Dmax values represent the maximum amount of BTK degradation observed upon compound treatment compared to DMSO only treated samples. The dMax (%) values are reported in Table 2 in the hWB BTK dMax (%) column.

[2] = target: His-tagged Cereblon/DDB1 complex (Homo sapiens (Human), UniProt Q96SW2); assay: Cereblon Binding Assay (AlphaLISA Human Cereblon Binding Kit, competition); details: 10 μM top dose, biotin-labeled ligand competition; read-out: CRBN IC50
Method: Cereblon binding was measured in vitro using an AlphaLISA® Human Cereblon Binding Kit (PerkinElmer, Waltham, MA) according to the manufacturer's protocol (“Alpha” refers to Amplified Luminescent Proximity Homogeneous Assay). In this assay, donor beads and acceptor beads come into proximity through ligand binding to CRBN protein. Excitation of the donor beads provokes the release of singlet oxygen that triggers a cascade of energy transfer reactions to the acceptor beads, resulting in a sharp peak in light emission at 615 nm.
Specifically, nickel chelate acceptor beads (PerkinElmer AL108M) were used to capture a 6XHIS-tagged CRBN protein, and streptavidin-coated donor beads (PerkinElmer 6760002) were used to capture 50 nM biotinylated ligand. Each well included the following: sample or control; HIS-tagged CRBN protein; biotinylated ligand; nickel chelate acceptor beads; and streptavidin donor beads.
Competition Assay: Test compounds in 100% dimethyl sulfoxide were plated onto white, low volume 384 well plates (PerkinElmer Proxiplate 384 plus # 6008289) using an Labcyte Echo acoustic dispenser, in an 11-point dose curve and 3-fold dilution scheme. […] Plates were incubated for 30 minutes at room temperature.
Detection: 10 μL detection reagents were added in low light conditions containing nickel chelate acceptor beads and streptavidin donor beads (Perkin Elmer 6760002), resulting in a final concentration 20 ng/ml. Plates were incubated 1 hour and read on a PerkinElmerTM Envision™ plate reader (680 nm excitation and […] settings). The IC50 of each compound was determined by calculating percent inhibition from no drug and no protein controls, and the Ki of each compound was calculated using the Cheng-Prusoff transformation. From the IC50 values were determined. The IC50 values are reported in Table 2 in the CRBN IC50 (nM) column.

| Compound | DC50 [1] [nM] | IC50 [2] [nM] |
| --- | --- | --- |
| Cc1cc(-c2cc(Nc3ccc(N4CCN(CCc5ccc(N6CCC(=O)NC6=O)cc5)C[C@@H]4C)cn3)ncn2)ccc1[C@@H](C)NC(=O)c1nc(C(C)(C)C)no1 [Example 1, 3-tert-butyl-N-[(1R)-1-{4-[6-({5-[(2S)-4-{2-[4-(2,4-dioxo-1,3-diazinan-1-yl)phenyl]ethyl}-2-methylpiperazin-1-yl]pyridin-2-yl}amino)pyrimidin-4-yl]-2-methylphenyl}ethyl]-1,2,4-oxadiazole-5-carboxamide] | 4.08 | 1260 |
| Cc1cc(-c2cc(Nc3ccc(N4CCN(CCc5ccc(N6CCC(=O)NC6=O)cc5)C[C@H]4C)cn3)ncn2)ccc1[C@@H](C)NC(=O)c1nc(C(C)(C)C)no1 [Example 2, 3-tert-butyl-N-[(1R)-1-{4-[6-({5-[(2R)-4-{2-[4-(2,4-dioxo-1,3-diazinan-1-yl)phenyl]ethyl}-2-methylpiperazin-1-yl]pyridin-2-yl}amino)pyrimidin-4-yl]-2-methylphenyl}ethyl]-1,2,4-oxadiazole-5-carboxamide] | 5.93 | 749 |
| Cc1cc(-c2cc(Nc3ccc(N4CCN(CCc5ccc(N6CCC(=O)NC6=O)cc5)CC4)cn3)ncn2)ccc1[C@@H](C)NC(=O)c1nc(C(C)(C)C)no1 [Example 3, 3-tert-butyl-N-{(1R)-1-[4-(6-{[5-(4-{2-[4-(2,4-dioxo-1,3-diazinan-1-yl)phenyl]ethyl}piperazin-1-yl)pyridin-2-yl]amino}pyrimidin-4-yl)-2-methylphenyl]ethyl}-1,2,4-oxadiazole-5-carboxamide] | 2.88 | 9570 |
| Cc1cc(-c2cc(Nc3ccc(N4CCN(CCc5ccc(N6CCC(=O)NC6=O)c(F)c5)C[C@@H]4C)cn3)ncn2)ccc1[C@@H](C)NC(=O)c1nc(C(C)(C)C)no1 [Example 4, 3-tert-butyl-N-[(1R)-1-{4-[6-({5-[(2S)-4-{2-[4-(2,4-dioxo-1,3-diazinan-1-yl)-3-fluorophenyl]ethyl}-2-methylpiperazin-1-yl]pyridin-2-yl}amino)pyrimidin-4-yl]-2-methylphenyl}ethyl]-1,2,4-oxadiazole-5-carboxamide] | 7.62 | ≥ 10000 |
| Cc1cc(-c2cc(Nc3ccc(N4CCN(CCc5ccc(N6CCC(=O)NC6=O)c(F)c5)C[C@H]4C)cn3)ncn2)ccc1[C@@H](C)NC(=O)c1nc(C(C)(C)C)no1 [Example 5, 3-tert-butyl-N-[(1R)-1-{4-[6-({5-[(2R)-4-{2-[4-(2,4-dioxo-1,3-diazinan-1-yl)-3-fluorophenyl]ethyl}-2-methylpiperazin-1-yl]pyridin-2-yl}amino)pyrimidin-4-yl]-2-methylphenyl}ethyl]-1,2,4-oxadiazole-5-carboxamide] | 6 | 648 |
| CC[C@H]1CN(CCc2ccc(N3CCC(=O)NC3=O)cc2)CCN1c1ccc(Nc2cc(-c3ccc([C@@H](C)NC(=O)c4nc(C(C)(C)C)no4)c(C)c3)ncn2)nc1 [Example 6, 3-tert-butyl-N-[(1R)-1-{4-[6-({5-[(2S)-4-{2-[4-(2,4-dioxo-1,3-diazinan-1-yl)phenyl]ethyl}-2-ethylpiperazin-1-yl]pyridin-2-yl}amino)pyrimidin-4-yl]-2-methylphenyl}ethyl]-1,2,4-oxadiazole-5-carboxamide] | 2.45 | 378 |
| CC[C@H]1CN(CCc2ccc(N3CCC(=O)NC3=O)c(F)c2)CCN1c1ccc(Nc2cc(-c3ccc([C@@H](C)NC(=O)c4nc(C(C)(C)C)no4)c(C)c3)ncn2)nc1 [Example 7, 3-tert-butyl-N-[(1R)-1-{4-[6-({5-[(2S)-4-{2-[4-(2,4-dioxo-1,3-diazinan-1-yl)-3-fluorophenyl]ethyl}-2-ethylpiperazin-1-yl]pyridin-2-yl}amino)pyrimidin-4-yl]-2-methylphenyl}ethyl]-1,2,4-oxadiazole-5-carboxamide] | 18.7 | 609 |
| CC[C@@H]1CN(CCc2ccc(N3CCC(=O)NC3=O)cc2)CCN1c1ccc(Nc2cc(-c3ccc([C@@H](C)NC(=O)c4nc(C(C)(C)C)no4)c(C)c3)ncn2)nc1 [Example 8, 3-tert-butyl-N-[(1R)-1-{4-[6-({5-[(2R)-4-{2-[4-(2,4-dioxo-1,3-diazinan-1-yl)phenyl]ethyl}-2-ethylpiperazin-1-yl]pyridin-2-yl}amino)pyrimidin-4-yl]-2-methylphenyl}ethyl]-1,2,4-oxadiazole-5-carboxamide] | 4.04 | 3380 |
| Cc1cc(-c2cc(Nc3ccc(N4CCN(CCc5ccc(N6CCC(=O)NC6=O)cc5)CC4(C)C)cn3)ncn2)ccc1[C@@H](C)NC(=O)c1nc(C(C)(C)C)no1 [Example 9, 3-tert-butyl-N-{(1R)-1-[4-(6-{[5-(4-{2-[4-(2,4-dioxo-1,3-diazinan-1-yl)phenyl]ethyl}-2,2-dimethylpiperazin-1-yl)pyridin-2-yl]amino}pyrimidin-4-yl)-2-methylphenyl]ethyl}-1,2,4-oxadiazole-5-carboxamide] | 9.61 | 658 |
| Cc1cc(-c2cc(Nc3ccc(N4CCN(CCc5ccc(N6CCC(=O)NC6=O)cc5)CC4)cn3)ncn2)c(F)cc1[C@@H](C)NC(=O)c1nc(C(C)(C)C)no1 [Example 12, 3-tert-butyl-N-{(1R)-1-[4-(6-{[5-(4-{2-[4-(2,4-dioxo-1,3-diazinan-1-yl)phenyl]ethyl}piperazin-1-yl)pyridin-2-yl]amino}pyrimidin-4-yl)-5-fluoro-2-methylphenyl]ethyl}-1,2,4-oxadiazole-5-carboxamide] | 2.27 | 2010 |
| Cc1cc(-c2cc(Nc3ccc(N4CCN(CCc5ccc(N6CCC(=O)NC6=O)cc5)C[C@@H]4C(C)C)cn3)ncn2)ccc1[C@@H](C)NC(=O)c1nc(C(C)(C)C)no1 [Example 13, 3-tert-butyl-N-[(1R)-1-{4-[6-({5-[(2S)-4-{2-[4-(2,4-dioxo-1,3-diazinan-1-yl)phenyl]ethyl}-2-(propan-2-yl)piperazin-1-yl]pyridin-2-yl}amino)pyrimidin-4-yl]-2-methylphenyl}ethyl]-1,2,4-oxadiazole-5-carboxamide] | 17.3 | ≥ 10000 |
| C[C@@H](NC(=O)c1nc(C(C)(C)C)no1)c1ccc(-c2cc(Nc3ccc(N4CCN(CCc5ccc(N6CCC(=O)NC6=O)cc5)C[C@@H]4C)cn3)ncn2)cc1Cl [Example 14, 3-tert-butyl-N-[(1R)-1-{2-chloro-4-[6-({5-[(2S)-4-{2-[4-(2,4-dioxo-1,3-diazinan-1-yl)phenyl]ethyl}-2-methylpiperazin-1-yl]pyridin-2-yl}amino)pyrimidin-4-yl]phenyl}ethyl]-1,2,4-oxadiazole-5-carboxamide] | 7.91 | 2330 |
| Cc1cc(-c2cc(Nc3ccc(N4CCN(CCc5ccc(N6CCC(=O)NC6=O)cc5)C[C@@H]4C)cc3)ncn2)ccc1[C@@H](C)NC(=O)c1nc(C(C)(C)C)no1 [Example 18] | 15.6 | 1250 |
| Cc1cc(-c2cc(Nc3ccc(CCN4CCN(c5ccc(N6CCC(=O)NC6=O)cc5)CC4)cn3)ncn2)ccc1[C@@H](C)NC(=O)c1nc(C(C)(C)C)no1 [Example 19] | 3 | ≥ 10000 |
